Data published in patent US20030170194A1, “Pharmaceutical and/or cosmetic composition containing an organosiloxane and a phospholipid” (priority 2000, published 2003).

Type: physicochemical
Details: composition of 10% by weight phospholipid and 90% by weight hexamethyldisiloxane

dissolves in higher concentration than in hexamethyldisiloxane alone: 10 fold
SMILES: Clc1ccccc1C(c1ccccc1)(c1ccccc1)n1ccnc1 [clotrimazole]
